In this test the target is T1, Human TRPA1 (Homo sapiens, UniProt O75762).
T1 construct: expressed in transfected cells; host or cells: CHO cells
The experiment in a line: 45Calcium uptake assay: inhibition of AITC induced cellular uptake of radioactive calcium. The class given is cell-based. To be noted: AITC (30 μM) induced 45Ca uptake, Human TRPA1 expressing CHO cells; for inhibition at 1 µM: 1.0 μM test compound, read-out: Percentage inhibition at 1.0 μM; for inhibition at 10 µM: 10.0 μM test compound, read-out: Percentage inhibition at 10.0 μM; for IC50: read-out: Human IC50 value (range). The text has this:
The illustrative examples of the present invention are screened for TRPA1 activity according to a modified procedure described in (a) Tóth, A. et al., Life Sciences, 2003, 73, 487-498. (b) McNamara C, R. et al., Proc. Natl. Acad. Sci. U.S.A., 2007, 104, 13525-13530. The screening of the compounds can be carried out by other methods and procedures known to persons skilled in the art.
Screening for TRPA1 Antagonist Using the ^45Calcium Uptake Assay
The inhibition of TRPA1 receptor activation was measured as inhibition of allyl isothiocyanate (AITC) induced cellular uptake of radioactive calcium. Test compounds were dissolved in DMSO to prepare 10 mM stock solution and then diluted using plain medium with 0.1% BSA and 1.8 mM CaCl2 to get desired concentration. Final concentration of DMSO in the reaction was 0.5% (v/v). Human TRPA1 expressing CHO cells were grown in F-12 DMEM medium with 10% FBS, 1% penicillin-streptomycin solution, 400 μg/ml of G-418. Cells were seeded 24 h prior to the assay in 96 well plates so as to get ˜50,000 cells per well on the day of experiment. Cells were treated with test compounds for 10 min followed by addition of AITC at a final concentration of 30 μM and 5 μCi/ml ^45Ca^+2 for 3 min. Cells were washed and lysed using buffer containing 1% Triton X-100, 0.1% deoxycholate and 0.1% SDS. Radioactivity in the lysate was measured in Packard Top count after addition of liquid scintillant. Concentration response curves were plotted as a % of maximal response obtained in the absence of test antagonist. IC50 value was calculated from concentration response curve by nonlinear regression analysis using GraphPad PRISM software.

Each structure is given as a SMILES string.

T1 sequence (O75762 whole entry): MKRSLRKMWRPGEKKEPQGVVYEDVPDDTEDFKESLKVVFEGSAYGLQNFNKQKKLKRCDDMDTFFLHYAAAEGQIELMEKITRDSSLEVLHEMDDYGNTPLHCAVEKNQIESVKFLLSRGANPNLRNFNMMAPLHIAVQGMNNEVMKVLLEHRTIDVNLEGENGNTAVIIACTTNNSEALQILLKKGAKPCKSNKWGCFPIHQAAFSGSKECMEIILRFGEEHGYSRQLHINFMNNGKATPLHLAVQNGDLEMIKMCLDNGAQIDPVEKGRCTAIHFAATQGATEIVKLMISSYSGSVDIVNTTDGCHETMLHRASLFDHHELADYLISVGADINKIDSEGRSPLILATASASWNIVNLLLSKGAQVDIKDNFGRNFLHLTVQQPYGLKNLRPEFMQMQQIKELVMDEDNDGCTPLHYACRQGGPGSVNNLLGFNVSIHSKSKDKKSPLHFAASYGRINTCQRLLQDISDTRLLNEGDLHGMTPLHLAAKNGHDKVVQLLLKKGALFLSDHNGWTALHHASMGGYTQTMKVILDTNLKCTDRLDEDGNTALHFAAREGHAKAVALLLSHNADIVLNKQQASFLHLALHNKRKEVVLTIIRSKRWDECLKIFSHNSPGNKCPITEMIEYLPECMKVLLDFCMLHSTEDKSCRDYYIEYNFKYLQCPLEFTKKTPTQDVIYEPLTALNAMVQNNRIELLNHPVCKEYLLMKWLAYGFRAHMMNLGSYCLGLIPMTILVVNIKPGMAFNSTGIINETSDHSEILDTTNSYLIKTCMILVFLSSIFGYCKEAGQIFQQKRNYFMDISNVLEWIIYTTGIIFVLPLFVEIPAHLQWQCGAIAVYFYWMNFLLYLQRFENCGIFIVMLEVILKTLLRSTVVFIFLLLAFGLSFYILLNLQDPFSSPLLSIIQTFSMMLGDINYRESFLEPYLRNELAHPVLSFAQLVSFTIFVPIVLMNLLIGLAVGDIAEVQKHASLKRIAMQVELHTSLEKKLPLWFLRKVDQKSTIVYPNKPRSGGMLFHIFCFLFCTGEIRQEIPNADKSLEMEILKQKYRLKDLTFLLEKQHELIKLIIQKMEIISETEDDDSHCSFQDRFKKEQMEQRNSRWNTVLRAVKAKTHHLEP

As to `Cn1c(=O)c2c(ccn2CC(=O)Nc2nc(-c3ccc(F)cc3F)cs2)n(C)c1=O` [Example 1, N-[4-(2,4-Difluorophenyl)-1,3-thiazol-2-yl]-2-(1,3-dimethyl-2,4-dioxo-1,2,3,4-tetrahydro-5H-pyrrolo[3,2-d]pyrimidin-5-yl)acetamide], the inhibition at 1 µM stood at 23.1% and the inhibition at 10 µM came to 21.4%.

`Cn1c(=O)c2c(ccn2CC(=O)Nc2nc(-c3ccc(F)c(C(F)(F)F)c3)cs2)n(C)c1=O` [Example 2, 2-(1,3-Dimethyl-2,4-dioxo-1,2,3,4-tetrahydro-5H-pyrrolo[3,2-d]pyrimidin-5-yl)-N-{4-[4-fluoro-3-(trifluoromethyl)phenyl]-1,3-thiazol-2-yl}acetamide]: the inhibition at 1 µM is 35.4% and the inhibition at 10 µM came out at 79.5%.

In the case of `Cn1c(=O)c2c(ccn2CC(=O)Nc2nc(-c3ccc(C(F)(F)F)c(F)c3)cs2)n(C)c1=O` [Example 3, 2-(1,3-Dimethyl-2,4-dioxo-1,2,3,4-tetrahydro-5H-pyrrolo[3,2-d]pyrimidin-5-yl)-N-{4-[3-fluoro-4-(trifluoromethyl)phenyl]-1,3-thiazol-2-yl}acetamide], the inhibition at 1 µM was found to be 94.4%, the inhibition at 10 µM was 98.8% and the IC50 was < 0.05 µM.

Regarding `Cn1c(=O)c2c(ccn2CC(=O)Nc2nc(-c3ccc(Cl)c(C(F)(F)F)c3)cs2)n(C)c1=O` [Example 4, 2-(1,3-Dimethyl-2,4-dioxo-1,2,3,4-tetrahydro-5H-pyrrolo[3,2-d]pyrimidin-5-yl)-N-{4-[4-chloro-3-(trifluoromethyl)phenyl]-1,3-thiazol-2-yl}acetamide], the inhibition at 1 µM was found to be 34.4% and the inhibition at 10 µM is 89.8%.

For the molecule `Cn1c(=O)c2c(ccn2CC(=O)Nc2nc(-c3ccc(Cl)c(Cl)c3Cl)cs2)n(C)c1=O` [Example 5, 2-(1,3-Dimethyl-2,4-dioxo-1,2,3,4-tetrahydro-5H-pyrrolo[3,2-d]pyrimidin-5-yl)-N-[4-(2,3,4-trichlorophenyl)-1,3-thiazol-2-yl]acetamide], the inhibition at 1 µM was 55.3% and the inhibition at 10 µM was 82.3%.

In the case of `CC(C)COc1c(F)cc(-c2csc(NC(=O)Cn3ccc4c3c(=O)n(C)c(=O)n4C)n2)cc1F` [Example 6, 2-(1,3-Dimethyl-2,4-dioxo-1,2,3,4-tetrahydro-5H-pyrrolo[3,2-d]pyrimidin-5-yl)-N-{4-[4-(2-methylpropoxy)-3,5-difluorophenyl]-1,3-thiazol-2-yl}acetamide], the inhibition at 1 µM stood at 42.4% and the inhibition at 10 µM was 52.8%.

For `CC(C)CCOc1c(F)cc(-c2csc(NC(=O)Cn3ccc4c3c(=O)n(C)c(=O)n4C)n2)cc1F` [Example 7, N-{4-[3,5-Difluoro-4-(3-methylbutoxy)phenyl]-1,3-thiazol-2-yl}-2-(1,3-dimethyl-2,4-dioxo-1,2,3,4-tetrahydro-5H-pyrrolo[3,2-d]pyrimidin-5-yl)acetamide], the inhibition at 1 µM turned out to be 35.5% and the inhibition at 10 µM turned out to be 37.3%.

On to `Cn1c(=O)c2c(ccn2CC(=O)Nc2nc(-c3cc(F)c(OCC(C)(C)C)c(F)c3)cs2)n(C)c1=O` [Example 8, N-{[4-(2,2-Dimethylpropoxy)-3,5-difluorophenyl]-1,3-thiazol-2-yl}-2-(1,3-dimethyl-2,4-dioxo-1,2,3,4-tetrahydro-5H-pyrrolo[3,2-d]pyrimidin-5-yl)acetamide], for which the inhibition at 1 µM is 91.9%, the inhibition at 10 µM amounted to 100% and the IC50 was < 0.05 µM.

Turning to `Cn1c(=O)c2c(ccn2CC(=O)Nc2nc(-c3ccc(F)c(C(F)(F)F)c3F)cs2)n(C)c1=O` [Example 9, 2-(1,3-Dimethyl-2,4-dioxo-1,2,3,4-tetrahydro-5H-pyrrolo[3,2-d]pyrimidin-5-yl)-N-{4-[2,4-difluorophenyl-3-trifluoromethyl]-1,3-thiazol-2-yl}acetamide], the inhibition at 1 µM came to 60.7% and the inhibition at 10 µM turned out to be 91.3%.

As a reminder, the inhibition is the percentage by which the read-out fell short of the control. Usually IC50 stands for the point on the concentration scale where inhibition reaches its midpoint.
